Like-named read-outs stand apart in the source and are kept apart here.
How the values were obtained:
[1] = CNS pharmacokinetics by blood and brain-ventricle microdialysis, CE-UV; assay type: in vivo, Sprague-Dawley Rats; conditions: Sprague-Dawley, rat; for Cmax: intravenous, 40 mg/kg tail vein injection; for AUC(0-t): read-out: AUC (0-12) (converted); for half-life: iv, 40 mg/kg
Description: CNS pharmacokinetics was determined in rats after a tail vein injection of EDO-S101 at 40 mg/kg. Microdialysate samples were collected from the blood and a ventricle of the brain via microdialysis probes at 18 time intervals. The drug concentrations in these samples were determined by capillary electrophoresis with UV detection (CE-UV) followed by calculations for various pharmacokinetic parameters.
Six rats were anesthetized with gasiform isoflurane (1% isoflurane in a mixture of 20% oxygen and 80% nitrogen gas) and immobilized in a stereotaxic frame (KOPF Instruments, Tujunga, CA). Anaesthesia was maintained during the entire procedure. Each guide cannula (CMA Microdialysis Inc., Acton, MA) was stereotactically implanted into the lateral ventricle (AP -0.9, L 1.6, V 3.4, relative to bregma and skull), then secured to the skull by screws and dental cement. Following surgery, each rat was housed individually with food and water ad libitum for 3 days for recovery from cannulation surgery. Microdialysis experiments were carried out on conscious, freely moving rat. On the day of the experiment, the stylet in the guide cannula was replaced with the microdialysis probe (CMA/11 with 4 mm membrane, CMA Microdialysis Inc., Acton, MA) and a vascular microdialysis probe (CMA/20 with 4 mm membrane, CMA Microdialysis Inc, Acton, MA)) was implanted into the jugular vein. The probes had inlet tubes connected to syringes to deliver artificial cerebrospinal fluid (146 mM NaCl, 1.2 mM CaCl2, 3 mM KCI, 1 mM MgCl2, 1.9 mM Na2HPO4, 0.1 mM NaH2PO4, pH 7.4) into the ventricle and Dulbecco’s phosphate-buffered saline (D-PBS) into the blood at 0.5 µl/min flow rate. The outlet tubes were connected to a microfraction collector for collecting the microdailysates at 4° C. The rats were allowed to recover for at least 24 hours prior to dosing. Eighteen samples were collected over 3 hours after EDO-S101 injection (intravenously). All samples were applied to the capillary electrophoresis with UV detection (CE-UV) for the determination of concentration of EDO-S101 in the cerebrospinal fluid (CSF) and blood. The rats were sacrificed using CO2 inhalation after the experiment. The position of the probe was verified by visual inspection at the end of each experiment.
EDO-S101 in the microdialysate were measured by CE-UV (Agilent 3D CE). Briefly, the capillaries were preconditioned with 1 M sodium hydroxide for 2 min, water for 2 min and running buffer [100 mmol/l solution of ammonium acetate (adjust to pH 3.1 with acetic acid)-acetonitrile (50:50, v/v) ] for 3 min. The samples were injected at a pressure of 0.7 psi for 5 s and the injection volume was approximately 5 nl. After injection, EDO-S101 was separated in a fused silica capillary of 50 µm I.D. and 50/65 cm length (effective length/total length) under 15 kv and 25° C. The absorbance from EDO-S101 was detected with UV at […]. […].
To perform a statistical analysis on the data, a two-way repeated measures ANOVA followed by Tukey’s test was used. P<0.05 was considered significant. CNS penetration is determined as the ratio of CSF and blood area under the curve (AUC).

GBM12 cells = assay: Intracerebral luciferase-transfected GBM12 murine brain tumour model; assay type: in vivo, athymic mice; conditions: for median survival: IV weekly day +4, +11, +18, EDO-S101 60 mg/kg, bendamustine 50 mg/kg, controls 52 days
Description: Therapeutic activity of EDO-S101 was determined in murine brain tumour models against GBM, based on tumour growth as determined by bioluminescence imaging and survival analysis as determined by Kaplan-Meier analysis.
Murine brain tumour models were created by intracerebral injection of 3×10^5 luciferase-transfected GBM12 cells in athymic mice under aesthesia using a stereotactic platform. GBM12 is a MGMT negative tumour cell line. Eight-week-old athymic mice underwent minimum 7 \-day acclimation/quarantine prior to surgery. Surgery was performed in a laminar flow hood under sterile conditions. Tylenol 300 mg/kg PO was given for analgesia 24 hours before the surgery continuing 48 hours postoperatively. Aesthesia was achieved by inhalation of 1-2% isoflurane. After the mouse became well anesthetized, it was placed in the Kopf stereotactic instrument. A small amount of BNP antibiotic cream (a mixture of Bacitracin, Neomycin and Polymyxin) was smeared on its eyes to prevent infection and corneal damage during surgery. A strip of soft fabric was placed over the mouse’s body and tail to prevent excessive heat loss during surgery. The scalp area was cleaned with a 2% solution of Betadine and dried with cotton tipped applicator. A midline sagittal incision was made in the scalp.
A small burr hole was drilled in the left skull with a surgical drill (Kopf) or a Dremel drill according to the coordinates (AP: 0.5 mm, LM: 2.5 mm) as determined by reference to the mouse brain atlas by Franklin and Paxinos. […] The mice were monitored post-operatively at least twice a day for 5 days or until recovery is complete. […]
After intracerebral injection of the GBM cells, all the mice were subjected to bioluminescence imaging (BLI) twice a week starting at day-4 post-intracerebral injection to monitor the real-time in vivo tumour growth. […] Peak luminescent signals were recorded 10 minutes after luciferin injection. Regions of interest encompassing the intracranial area of signal were defined using Living Image software (Xenogen, Alameda, CA), and the total photons/s/steradian /cm2 was recorded. […]

[2] = CSF (brain lateral ventricle microdialysate), Brain (CSF), 40 mg/kg iv
[3] = blood (jugular vein microdialysate), Blood, 40 mg/kg iv

Structure (SMILES)	Cmax ([1]; CSF (brain lateral ventricle microdialysate), Brain (CSF)) [µM]	Tmax [1, 2] [min]	AUC(0-t) [1, 2] [µM·h]	Cmax ([1]; blood (jugular vein microdialysate), Blood) [µM]	Tmax [1, 3] [min]	AUC(0-t) [1, 3] [µM·h]	half-life [1, 2] [min]	half-life [1, 3] [min]	Kp ([1]; ratio of CSF and blood AUC, 40 mg/kg iv, read-out: AUC ratio (Brain:Blood), CNS penetration)	tumour growth (bioluminescence imaging) (GBM12 cells; IV 60 mg/kg day +4, +11, +18)	median survival (GBM12 cells) [days]
Cn1c(CCCCCCC(=O)NO)nc2cc(N(CCCl)CCCl)ccc21 [EDO-S101]	11.2	5.67	2.27	184	2.33	13.7	~9	~6	0.165	suppression of tumour growth	66
Cn1c(CCCC(=O)O)nc2cc(N(CCCl)CCCl)ccc21 [bendamustine]	–	–	–	–	–	–	–	–	–	–	58

From patent US20230049350A1, “COMPOUNDS FOR TREATING BRAIN CANCER” (Purdue Pharmaceutical Products L.P., priority 2014, published 2023)
